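A five-concentration, 48-hour dose response in 96-well plates underlies each endpoint, interpolated linearly between surrounding concentrations. Abbreviation: GI50, concentration required for 50% inhibition of growth. TGI marks complete inhibition of growth.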
Experiments:
Assay in all cases: inhibition of tumour cell growth, NCI panel, 48 h
SN12C renal = system: SN12C renal
SR leukemia = system: SR leukemia
SW-620 colon = system: SW-620 colon
HL-60(TB) leukemia = system: HL-60(TB) leukemia
COLO 205 colon = system: COLO 205 colon
786-0 renal = system: 786-0 renal
MALME-3M melanoma = system: MALME-3M melanoma
MOLT-4 leukemia = system: MOLT-4 leukemia
UO-31 renal = system: UO-31 renal
MDA-MB-231 breast = system: MDA-MB-231 breast
UACC-257 melanoma = system: UACC-257 melanoma
OVCAR-4 ovarian = system: OVCAR-4 ovarian
NCI-H522 lung = system: NCI-H522 lung
OVCAR-5 ovarian = system: OVCAR-5 ovarian
OVCAR-3 ovarian = system: OVCAR-3 ovarian
HOP-62 NSCLC = system: HOP-62 NSCLC
KM12 colon = system: KM12 colon
MDA-MB-435 = system: MDA-MB-435
A549 NSCLC = system: A549 NSCLC
HCT-116 colon = system: HCT-116 colon
HCT-15 colon = system: HCT-15 colon
U251 CNS = system: U251 CNS
RPMI-8226 leukemia = system: RPMI-8226 leukemia
HS 578T breast = system: HS 578T breast
CAKI-1 renal = system: CAKI-1 renal
RXF 393 renal = system: RXF 393 renal
NCI-H226 lung = system: NCI-H226 lung
M14 melanoma = system: M14 melanoma
HOP-92 NSCLC = system: HOP-92 NSCLC
EKVX NSCLC = system: EKVX NSCLC
ACHN renal = system: ACHN renal
DU-145 prostate = system: DU-145 prostate
PC-3 prostate = system: PC-3 prostate
SK-OV-3 ovarian = system: SK-OV-3 ovarian
SF-295 CNS = system: SF-295 CNS
HCC-2998 colon = system: HCC-2998 colon
UACC-62 melanoma = system: UACC-62 melanoma
HT29 colon = system: HT29 colon
CCRF-CEM leukemia = system: CCRF-CEM leukemia
TK-10 renal = system: TK-10 renal
SK-MEL-28 melanoma = system: SK-MEL-28 melanoma
NCI/ADR-RES ovarian = system: NCI/ADR-RES ovarian
NCI-H460 lung = system: NCI-H460 lung
A498 renal = system: A498 renal
SF-539 CNS = system: SF-539 CNS
OVCAR-8 ovarian = system: OVCAR-8 ovarian
SF-268 CNS = system: SF-268 CNS
SK-MEL-2 melanoma = system: SK-MEL-2 melanoma
SNB-19 CNS = system: SNB-19 CNS
SNB-75 CNS = system: SNB-75 CNS
BT-549 breast = system: BT-549 breast
SK-MEL-5 melanoma = system: SK-MEL-5 melanoma
IGROV1 ovarian = system: IGROV1 ovarian
MCF7 breast = system: MCF7 breast
NCI-H23 lung = system: NCI-H23 lung
K-562 leukemia = system: K-562 leukemia
LOX IMVI melanoma = system: LOX IMVI melanoma
T-47D breast = system: T-47D breast

Question: For `COc1cc(N2CCN(C(C)C)CC2)ccc1Nc1nc(Nc2ccc(F)cc2C(N)=O)c2cc[nH]c2n1`, which GI50 (SN12C renal) is on record?
Answer: 2.54 µM

Question: What about the TGI (SN12C renal) of the same compound?
Answer: 5.9 µM

Question: What about the GI50 (SR leukemia) of the same compound?
Answer: 0.0145 µM

Question: And the TGI (SR leukemia)?
Answer: 10.1 µM

Question: And the GI50 (SW-620 colon)?
Answer: 0.0905 µM

Question: And the TGI (SW-620 colon)?
Answer: 4.17 µM

Question: What about the GI50 (HL-60(TB) leukemia) of the same compound?
Answer: 0.0594 µM

Question: What about the TGI (HL-60(TB) leukemia) of the same compound?
Answer: 4.7 µM

Question: And the GI50 (COLO 205 colon)?
Answer: 0.0241 µM

Question: And the TGI (COLO 205 colon)?
Answer: 0.126 µM

Question: What about the GI50 (786-0 renal) of the same compound?
Answer: 1.33 µM

Question: What about the TGI (786-0 renal) of the same compound?
Answer: 5.45 µM

Question: What about the GI50 (MALME-3M melanoma) of the same compound?
Answer: 0.228 µM

Question: What about the TGI (MALME-3M melanoma) of the same compound?
Answer: 5.22 µM

Question: And the GI50 (MOLT-4 leukemia)?
Answer: 5.24 µM

Question: What about the TGI (MOLT-4 leukemia) of the same compound?
Answer: 15.4 µM

Question: And the GI50 (UO-31 renal)?
Answer: 0.996 µM

Question: What about the TGI (UO-31 renal) of the same compound?
Answer: 5.28 µM

Question: And the GI50 (MDA-MB-231 breast)?
Answer: 2.98 µM

Question: And the TGI (MDA-MB-231 breast)?
Answer: 7.22 µM

Question: And the GI50 (UACC-257 melanoma)?
Answer: 0.194 µM

Question: And the TGI (UACC-257 melanoma)?
Answer: 5.6 µM

Question: What about the GI50 (OVCAR-4 ovarian) of the same compound?
Answer: 2.98 µM

Question: What about the TGI (OVCAR-4 ovarian) of the same compound?
Answer: 7.04 µM

Question: And the GI50 (NCI-H522 lung)?
Answer: 2.8 µM

Question: And the TGI (NCI-H522 lung)?
Answer: 6.42 µM

Question: What about the GI50 (OVCAR-5 ovarian) of the same compound?
Answer: 0.245 µM

Question: What about the TGI (OVCAR-5 ovarian) of the same compound?
Answer: 6.27 µM

Question: And the GI50 (OVCAR-3 ovarian)?
Answer: 3.08 µM

Question: What about the TGI (OVCAR-3 ovarian) of the same compound?
Answer: 6.43 µM

Question: And the GI50 (HOP-62 NSCLC)?
Answer: 0.668 µM

Question: What about the TGI (HOP-62 NSCLC) of the same compound?
Answer: 5.26 µM

Question: And the GI50 (KM12 colon)?
Answer: 3.14 µM

Question: And the TGI (KM12 colon)?
Answer: 7.97 µM

Question: What about the GI50 (MDA-MB-435) of the same compound?
Answer: 0.242 µM

Question: And the TGI (MDA-MB-435)?
Answer: 5.45 µM

Question: And the GI50 (A549 NSCLC)?
Answer: 0.121 µM

Question: What about the TGI (A549 NSCLC) of the same compound?
Answer: 4.17 µM

Question: And the GI50 (HCT-116 colon)?
Answer: 0.119 µM

Question: What about the TGI (HCT-116 colon) of the same compound?
Answer: 3.6 µM

Question: What about the GI50 (HCT-15 colon) of the same compound?
Answer: 0.387 µM

Question: And the TGI (HCT-15 colon)?
Answer: 8.16 µM

Question: And the GI50 (U251 CNS)?
Answer: 2.72 µM

Question: And the TGI (U251 CNS)?
Answer: 6.13 µM

Question: What about the GI50 (RPMI-8226 leukemia) of the same compound?
Answer: 3.69 µM

Question: And the TGI (RPMI-8226 leukemia)?
Answer: 12.5 µM

Question: And the GI50 (HS 578T breast)?
Answer: 2.67 µM

Question: What about the TGI (HS 578T breast) of the same compound?
Answer: 9.8 µM

Question: And the GI50 (CAKI-1 renal)?
Answer: 0.911 µM

Question: What about the TGI (CAKI-1 renal) of the same compound?
Answer: 5.29 µM

Question: What about the GI50 (RXF 393 renal) of the same compound?
Answer: 0.857 µM

Question: And the TGI (RXF 393 renal)?
Answer: 5.27 µM

Question: What about the GI50 (NCI-H226 lung) of the same compound?
Answer: 1.11 µM

Question: What about the TGI (NCI-H226 lung) of the same compound?
Answer: 6.65 µM

Question: And the GI50 (M14 melanoma)?
Answer: 0.18 µM

Question: And the TGI (M14 melanoma)?
Answer: 4.07 µM

Question: What about the GI50 (HOP-92 NSCLC) of the same compound?
Answer: 0.0148 µM

Question: And the TGI (HOP-92 NSCLC)?
Answer: 0.687 µM

Question: And the GI50 (EKVX NSCLC)?
Answer: 0.48 µM

Question: What about the TGI (EKVX NSCLC) of the same compound?
Answer: 7.19 µM

Question: What about the GI50 (ACHN renal) of the same compound?
Answer: 0.502 µM

Question: What about the TGI (ACHN renal) of the same compound?
Answer: 5.2 µM

Question: And the GI50 (DU-145 prostate)?
Answer: 0.234 µM

Question: And the TGI (DU-145 prostate)?
Answer: 4.63 µM

Question: What about the GI50 (PC-3 prostate) of the same compound?
Answer: 3.75 µM

Question: What about the TGI (PC-3 prostate) of the same compound?
Answer: 12.9 µM

Question: What about the GI50 (SK-OV-3 ovarian) of the same compound?
Answer: 0.317 µM

Question: And the TGI (SK-OV-3 ovarian)?
Answer: 3.03 µM

Question: What about the GI50 (SF-295 CNS) of the same compound?
Answer: 3.99 µM

Question: What about the TGI (SF-295 CNS) of the same compound?
Answer: 10.3 µM

Question: What about the GI50 (HCC-2998 colon) of the same compound?
Answer: 0.558 µM

Question: And the TGI (HCC-2998 colon)?
Answer: 5.63 µM

Question: And the GI50 (UACC-62 melanoma)?
Answer: 2.53 µM

Question: And the TGI (UACC-62 melanoma)?
Answer: 6.42 µM

Question: What about the GI50 (HT29 colon) of the same compound?
Answer: 0.0208 µM

Question: And the TGI (HT29 colon)?
Answer: 2.88 µM

Question: What about the GI50 (CCRF-CEM leukemia) of the same compound?
Answer: 0.277 µM

Question: What about the TGI (CCRF-CEM leukemia) of the same compound?
Answer: 21.3 µM

Question: What about the GI50 (TK-10 renal) of the same compound?
Answer: 0.17 µM

Question: What about the TGI (TK-10 renal) of the same compound?
Answer: 4.68 µM

Question: And the GI50 (SK-MEL-28 melanoma)?
Answer: 3.69 µM

Question: And the TGI (SK-MEL-28 melanoma)?
Answer: 7.59 µM

Question: What about the GI50 (NCI/ADR-RES ovarian) of the same compound?
Answer: 3.76 µM

Question: What about the TGI (NCI/ADR-RES ovarian) of the same compound?
Answer: 11.6 µM

Question: What about the GI50 (NCI-H460 lung) of the same compound?
Answer: 0.0985 µM

Question: What about the TGI (NCI-H460 lung) of the same compound?
Answer: 3.72 µM

Question: And the GI50 (A498 renal)?
Answer: 0.165 µM

Question: What about the TGI (A498 renal) of the same compound?
Answer: 3.65 µM

Question: What about the GI50 (SF-539 CNS) of the same compound?
Answer: 2.76 µM

Question: And the TGI (SF-539 CNS)?
Answer: 6.33 µM

Question: And the GI50 (OVCAR-8 ovarian)?
Answer: 0.363 µM

Question: And the TGI (OVCAR-8 ovarian)?
Answer: 5.43 µM

Question: What about the GI50 (SF-268 CNS) of the same compound?
Answer: 3.36 µM

Question: And the TGI (SF-268 CNS)?
Answer: 7.92 µM

Question: What about the GI50 (SK-MEL-2 melanoma) of the same compound?
Answer: 0.163 µM

Question: What about the TGI (SK-MEL-2 melanoma) of the same compound?
Answer: 1.77 µM

Question: What about the GI50 (SNB-19 CNS) of the same compound?
Answer: 3.98 µM

Question: What about the TGI (SNB-19 CNS) of the same compound?
Answer: 11.4 µM

Question: And the GI50 (SNB-75 CNS)?
Answer: 3.04 µM

Question: What about the TGI (SNB-75 CNS) of the same compound?
Answer: 6.32 µM

Question: And the GI50 (BT-549 breast)?
Answer: 3.28 µM

Question: What about the TGI (BT-549 breast) of the same compound?
Answer: 6.93 µM

Question: What about the GI50 (SK-MEL-5 melanoma) of the same compound?
Answer: 0.747 µM

Question: And the TGI (SK-MEL-5 melanoma)?
Answer: 5.28 µM

Question: And the GI50 (IGROV1 ovarian)?
Answer: 0.392 µM

Question: What about the TGI (IGROV1 ovarian) of the same compound?
Answer: 6.94 µM

Question: And the GI50 (MCF7 breast)?
Answer: 0.0154 µM

Question: And the TGI (MCF7 breast)?
Answer: 4.07 µM

Question: And the GI50 (NCI-H23 lung)?
Answer: 0.304 µM

Question: And the TGI (NCI-H23 lung)?
Answer: 6.65 µM

Question: What about the GI50 (K-562 leukemia) of the same compound?
Answer: 3.31 µM

Question: And the TGI (K-562 leukemia)?
Answer: 15.2 µM

Question: And the GI50 (LOX IMVI melanoma)?
Answer: 0.124 µM

Question: And the TGI (LOX IMVI melanoma)?
Answer: 4.63 µM

Question: What about the GI50 (T-47D breast) of the same compound?
Answer: 3.49 µM

Question: And the TGI (T-47D breast)?
Answer: 8.2 µM

Source: PubChem BioAssay (NCI)
